Laboratory results as given in PubChem BioAssay AID651940 (Sanford-Burnham Center for Chemical Genomics, 2012).
Calls of active or inactive are those of the source.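 The calls were made as follows: active = IC50 below 50 µM, and active in both the human and murine receptor assays; inactive = the rest.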

Molecular target: C-X-C chemokine receptor type 6 (Mus musculus) (UniProt Q9EQ16)
Assay: antagonism of murine CXCR6 beta-arrestin recruitment – cell-based, mouse ortholog, CHO-K1, luminescence, selectivity assay for human CXCR6 antagonist project, SAR follow-up (AID 651940)
Conditions: CHO-K1 mCXCR6 beta-arrestin PathHunter

Chain of C-X-C chemokine receptor type 6 (Mus musculus) (Q9EQ16 whole entry, looked up): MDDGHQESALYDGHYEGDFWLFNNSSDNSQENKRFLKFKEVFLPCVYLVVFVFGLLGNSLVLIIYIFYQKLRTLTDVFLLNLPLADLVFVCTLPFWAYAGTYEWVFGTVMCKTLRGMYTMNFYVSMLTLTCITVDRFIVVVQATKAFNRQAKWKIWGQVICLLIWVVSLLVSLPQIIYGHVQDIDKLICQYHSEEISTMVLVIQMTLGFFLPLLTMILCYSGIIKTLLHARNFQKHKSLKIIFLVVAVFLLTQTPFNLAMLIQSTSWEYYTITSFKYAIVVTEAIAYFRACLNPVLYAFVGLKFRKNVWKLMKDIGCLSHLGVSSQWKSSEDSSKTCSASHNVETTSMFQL

Row | SMILES | IC50
1 | COc1cc(C(=O)NC2CC3CCCC(C2)N3CC(=O)Nc2ccccc2)cc(OC)c1OC (configuration not stated) | > 79 µM (inactive)
2 | COc1cc(C(=O)NC2CC3CCCC(C2)N3CC(=O)Nc2ccc(C)cc2)cc(OC)c1OC (configuration not stated) | inactive
3 | COc1ccc(CN2C3CCCC2CC(NC(=O)c2cc(OC)c(OC)c(OC)c2)C3)cc1 (configuration not stated) | > 79 µM (inactive)
4 | COc1cc(C(=O)NC2CC3CCCC(C2)N3CC(=O)Nc2ccc(F)cc2)cc(OC)c1OC (configuration not stated) | > 79 µM (inactive)
5 | COc1cc(C(=O)NC2CC3CCCC(C2)N3CC(=O)Nc2ccc(Cl)cc2)cc(OC)c1OC (configuration not stated) | > 79 µM (inactive)
6 | COc1ccc(NC(=O)CN2C3CCCC2CC(NC(=O)c2cc(OC)c(OC)c(OC)c2)C3)cc1 (configuration not stated) | > 79 µM (inactive)
7 | COc1ccccc1NC(=O)CN1C2CCCC1CC(NC(=O)c1cc(OC)c(OC)c(OC)c1)C2 (configuration not stated) | > 79 µM (inactive)
